Activity calls are given as the source filed them.
How the values were obtained:
[1] = molecular target: Induced myeloid leukemia cell differentiation protein Mcl-1 (Homo sapiens, UniProt Q07820); assay type: functional
[2] = molecular target: Eukaryotic translation initiation factor 4E (Mus musculus, UniProt P63073); assay: eIF4E–eIF4G protein interaction inhibitors, dose response, biochemical, TR-FRET (AID 855); assay type: functional;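 note: potency for disrupting eIF4E binding to eIF4GI seen as loss of FRET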
Chain of Eukaryotic translation initiation factor 4E (P63073 whole entry): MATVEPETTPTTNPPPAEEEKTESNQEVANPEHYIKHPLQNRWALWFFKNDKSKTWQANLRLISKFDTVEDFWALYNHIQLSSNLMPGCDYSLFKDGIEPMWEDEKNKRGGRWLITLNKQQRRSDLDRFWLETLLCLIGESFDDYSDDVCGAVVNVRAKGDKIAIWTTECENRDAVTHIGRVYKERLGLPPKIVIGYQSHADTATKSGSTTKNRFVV

[3] = cytotoxicity in HEK-293T cells, dose response, cytotoxicity control for BCR NF-kB inhibitor project, luminescence, B-cell screen hits (AID 489021); assay type: functional, cell-based;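 note: HEK-293T cells carrying an NF-kB luciferase reporter; cells exposed to compound for about 14 hours before viability readout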
SUMO-activating enzyme [4] = molecular target: T1, SUMO-activating enzyme (Homo sapiens, UniProt Q9UBT2); assay: inhibitors of in vitro SUMOylation cascade, primary screen, biochemical, HTRF, uHTS (AID 2006); assay type: protein-complex assay
T1 sequence (Q9UBE0 whole entry): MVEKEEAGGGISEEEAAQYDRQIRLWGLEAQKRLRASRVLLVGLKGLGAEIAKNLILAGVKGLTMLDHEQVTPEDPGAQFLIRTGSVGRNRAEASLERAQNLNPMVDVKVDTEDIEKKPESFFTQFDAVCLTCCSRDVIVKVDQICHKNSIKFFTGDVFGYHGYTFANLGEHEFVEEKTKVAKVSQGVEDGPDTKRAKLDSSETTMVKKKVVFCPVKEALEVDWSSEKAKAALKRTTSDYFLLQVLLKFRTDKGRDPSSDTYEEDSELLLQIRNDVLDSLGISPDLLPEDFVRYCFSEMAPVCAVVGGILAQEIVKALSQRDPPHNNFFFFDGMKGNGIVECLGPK
T1 sequence (Q9UBT2 whole entry): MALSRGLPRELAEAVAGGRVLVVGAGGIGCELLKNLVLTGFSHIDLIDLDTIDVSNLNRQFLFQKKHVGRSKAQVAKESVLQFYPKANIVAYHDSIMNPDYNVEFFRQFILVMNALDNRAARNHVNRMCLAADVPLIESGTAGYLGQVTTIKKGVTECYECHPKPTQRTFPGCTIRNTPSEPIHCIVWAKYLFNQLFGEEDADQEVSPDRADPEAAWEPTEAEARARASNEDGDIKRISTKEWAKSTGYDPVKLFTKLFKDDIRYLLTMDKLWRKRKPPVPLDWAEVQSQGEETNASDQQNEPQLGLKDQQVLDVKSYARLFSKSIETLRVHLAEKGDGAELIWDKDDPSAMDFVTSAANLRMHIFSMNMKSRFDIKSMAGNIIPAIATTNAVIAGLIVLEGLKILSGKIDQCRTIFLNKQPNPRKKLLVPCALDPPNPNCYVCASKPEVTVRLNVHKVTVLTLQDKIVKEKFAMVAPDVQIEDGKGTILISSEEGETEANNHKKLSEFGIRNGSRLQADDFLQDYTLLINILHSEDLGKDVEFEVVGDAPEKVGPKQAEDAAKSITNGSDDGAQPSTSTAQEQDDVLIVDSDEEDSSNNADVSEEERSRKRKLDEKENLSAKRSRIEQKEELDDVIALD

SUMO-activating enzyme [5] = molecular target: T1, SUMO-activating enzyme; assay: SUMOylation inhibitor hit validation, confirmation, SUMOylation inhibitor project, biochemical, AlphaScreen (AID 2018); assay type: functional
[6] = molecular target: T2, RNA-binding protein pos-1 (Caenorhabditis elegans, UniProt G5EF15); assay: inhibitors of POS-1/mex-3 RNA binding, dose response, biochemical, fluorescence polarization (AID 1964);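 note: purified POS-1 fused to maltose binding protein made in E. coli; potency of compounds blocking POS-1 binding to fluorescent RNA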
T2 sequence (G5EF15 whole entry): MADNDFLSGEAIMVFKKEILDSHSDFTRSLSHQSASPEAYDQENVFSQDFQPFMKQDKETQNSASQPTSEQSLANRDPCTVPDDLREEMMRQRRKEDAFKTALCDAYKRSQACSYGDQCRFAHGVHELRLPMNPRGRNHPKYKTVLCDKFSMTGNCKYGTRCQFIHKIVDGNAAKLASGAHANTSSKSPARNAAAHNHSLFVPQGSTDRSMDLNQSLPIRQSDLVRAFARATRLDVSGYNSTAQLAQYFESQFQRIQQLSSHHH

[7] = molecular target: T3, Zinc finger protein mex-5 (Caenorhabditis elegans, UniProt Q9XUB2); assay: MEX-5/TCR-2 RNA interaction inhibitors, dose response, biochemical, C. elegans, fluorescence polarization (AID 1960)
T3 sequence (Q9XUB2 whole entry): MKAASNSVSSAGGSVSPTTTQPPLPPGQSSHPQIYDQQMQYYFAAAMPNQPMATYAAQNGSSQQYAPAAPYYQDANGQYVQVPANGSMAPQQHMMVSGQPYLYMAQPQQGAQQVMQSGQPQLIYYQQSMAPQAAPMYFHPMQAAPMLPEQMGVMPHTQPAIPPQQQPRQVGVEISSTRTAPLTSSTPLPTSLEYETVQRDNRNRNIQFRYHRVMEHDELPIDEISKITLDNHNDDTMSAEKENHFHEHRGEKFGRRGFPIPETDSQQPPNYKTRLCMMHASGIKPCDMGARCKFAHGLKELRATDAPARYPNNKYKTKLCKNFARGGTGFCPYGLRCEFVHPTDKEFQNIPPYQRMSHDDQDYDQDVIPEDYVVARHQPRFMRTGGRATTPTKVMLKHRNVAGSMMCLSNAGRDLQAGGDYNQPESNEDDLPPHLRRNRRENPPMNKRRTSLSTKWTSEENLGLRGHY

Genome polyprotein = Genome polyprotein (dengue virus type 2, UniProt P29990); assay: Dengue-2 NS5 methyltransferase inhibitors, primary screen, biochemical, confirmation dose response (AID 588689); assay type: functional
Chain of Genome polyprotein (P29990 2492-3391 limits assumed): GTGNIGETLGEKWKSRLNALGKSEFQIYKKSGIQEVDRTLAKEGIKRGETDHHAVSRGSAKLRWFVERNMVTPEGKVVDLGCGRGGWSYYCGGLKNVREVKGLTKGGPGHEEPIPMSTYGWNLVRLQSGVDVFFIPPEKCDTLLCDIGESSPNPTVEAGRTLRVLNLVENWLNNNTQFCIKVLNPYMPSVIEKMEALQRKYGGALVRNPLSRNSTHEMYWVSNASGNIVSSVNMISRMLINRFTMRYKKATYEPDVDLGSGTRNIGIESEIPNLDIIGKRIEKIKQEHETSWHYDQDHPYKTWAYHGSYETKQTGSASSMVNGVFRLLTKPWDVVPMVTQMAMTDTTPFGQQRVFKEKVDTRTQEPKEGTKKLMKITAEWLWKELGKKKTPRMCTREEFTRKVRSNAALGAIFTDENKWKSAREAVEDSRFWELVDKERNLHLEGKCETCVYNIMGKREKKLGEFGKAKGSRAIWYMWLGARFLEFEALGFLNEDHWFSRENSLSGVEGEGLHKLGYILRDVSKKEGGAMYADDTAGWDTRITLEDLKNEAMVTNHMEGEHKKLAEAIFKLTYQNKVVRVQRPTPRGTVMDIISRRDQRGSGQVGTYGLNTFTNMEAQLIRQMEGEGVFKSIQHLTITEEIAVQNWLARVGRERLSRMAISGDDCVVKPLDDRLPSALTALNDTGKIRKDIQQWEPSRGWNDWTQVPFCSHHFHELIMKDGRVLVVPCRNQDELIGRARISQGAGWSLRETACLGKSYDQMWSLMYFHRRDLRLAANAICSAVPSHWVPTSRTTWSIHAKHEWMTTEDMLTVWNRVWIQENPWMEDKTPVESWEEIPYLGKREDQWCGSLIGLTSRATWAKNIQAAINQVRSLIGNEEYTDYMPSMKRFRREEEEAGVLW

Aminopeptidase N = molecular target: T4, Aminopeptidase N (Plasmodium falciparum FcB1/Columbia, UniProt O96935); assay: P. falciparum M1AAP inhibitors, biochemical, fluorogenic H-Leu-NHMec substrate, 1536-well (AID 1445); set-up: species or system Plasmodium falciparum 3D7, 3D7
T4 sequence (O96935 whole entry): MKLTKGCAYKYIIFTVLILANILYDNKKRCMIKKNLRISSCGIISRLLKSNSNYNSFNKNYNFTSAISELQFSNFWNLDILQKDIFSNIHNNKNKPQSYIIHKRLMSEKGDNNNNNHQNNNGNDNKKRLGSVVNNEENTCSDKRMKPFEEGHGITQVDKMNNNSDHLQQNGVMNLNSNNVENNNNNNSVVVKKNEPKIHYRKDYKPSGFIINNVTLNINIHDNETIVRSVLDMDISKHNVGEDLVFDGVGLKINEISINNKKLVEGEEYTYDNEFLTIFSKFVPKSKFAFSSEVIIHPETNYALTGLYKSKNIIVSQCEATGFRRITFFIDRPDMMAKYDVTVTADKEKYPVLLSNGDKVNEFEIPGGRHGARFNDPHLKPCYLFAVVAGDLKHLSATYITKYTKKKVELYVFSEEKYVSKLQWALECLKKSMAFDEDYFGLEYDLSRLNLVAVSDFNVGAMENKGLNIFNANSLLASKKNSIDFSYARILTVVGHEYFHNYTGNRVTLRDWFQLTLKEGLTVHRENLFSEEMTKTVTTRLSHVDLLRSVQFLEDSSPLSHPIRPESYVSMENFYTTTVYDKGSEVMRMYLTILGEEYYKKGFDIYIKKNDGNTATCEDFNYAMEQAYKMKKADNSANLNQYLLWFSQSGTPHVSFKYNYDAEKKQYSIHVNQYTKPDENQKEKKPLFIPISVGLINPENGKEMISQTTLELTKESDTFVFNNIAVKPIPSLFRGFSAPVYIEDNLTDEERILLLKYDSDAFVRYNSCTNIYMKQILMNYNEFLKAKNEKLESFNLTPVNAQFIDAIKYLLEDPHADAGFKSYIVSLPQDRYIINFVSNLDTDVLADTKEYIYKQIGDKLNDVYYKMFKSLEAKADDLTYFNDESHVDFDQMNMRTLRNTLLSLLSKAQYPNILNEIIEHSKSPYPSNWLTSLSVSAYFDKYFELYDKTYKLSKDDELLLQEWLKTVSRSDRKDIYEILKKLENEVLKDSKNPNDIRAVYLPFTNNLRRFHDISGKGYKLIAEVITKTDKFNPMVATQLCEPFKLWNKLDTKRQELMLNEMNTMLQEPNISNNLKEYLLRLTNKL

Streptococcus = assay: Group A Streptococcus viability loss, dose response, counter-screen for streptokinase expression inhibitor project, luminescence, BacTiterGlo (AID 1915); assay type: functional, organism-based;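 note: potency for reduction of bacterial viability or growth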
[8] = tested on: Streptococcus sp. 'group A'; assay: growth inhibition of control SK(-) GAS strain, dose response, counter-screen for streptokinase expression inhibitor project, luminescence, kanamycin, BacTiterGlo, confirmation (AID 1900); assay type: functional, organism-based

Chain of Induced myeloid leukemia cell differentiation protein Mcl-1 (Q07820 whole entry): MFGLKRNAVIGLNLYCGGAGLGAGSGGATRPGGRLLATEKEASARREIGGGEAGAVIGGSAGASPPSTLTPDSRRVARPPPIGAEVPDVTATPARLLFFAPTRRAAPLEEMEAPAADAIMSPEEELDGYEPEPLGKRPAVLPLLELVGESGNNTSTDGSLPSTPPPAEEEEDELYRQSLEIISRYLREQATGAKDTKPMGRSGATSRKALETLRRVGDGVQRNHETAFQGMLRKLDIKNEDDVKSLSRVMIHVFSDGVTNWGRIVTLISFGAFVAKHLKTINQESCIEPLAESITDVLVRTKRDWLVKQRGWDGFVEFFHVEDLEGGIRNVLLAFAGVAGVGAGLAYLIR

O=C1OC(c2cccs2)=N/C1=C/c1ccc(-c2cccc(C(=O)O)c2)o1
IC50 [1]: 1.53 µM (not active)
IC50 [2]: 32.7 µM (inactive)

Cc1c(CCC(=O)N2CCC(C(=O)O)(c3ccccc3)CC2)c(=O)oc2cc3oc4c(c3cc12)CCCC4
IC50 [3]: > 80 µM (inactive)

Cc1ccc(CNC(=O)c2ccc(N3CCc4ccccc43)c([N+](=O)[O-])c2)cc1
IC50 [2]: > 64 µM (inactive)

CC1=C(C#N)C(=O)NC(=O)/C1=C\c1ccc(-c2cc(C)c(C)cc2[N+](=O)[O-])o1
IC50 (SUMO-activating enzyme [4]): 39.7 µM (active)
IC50 (SUMO-activating enzyme [5]): 5.31 µM (active)
IC50 [1]: 2.87 µM (active)
IC50 [2]: 40.4 µM (inactive)
EC50 [6]: > 300 µM (not active)
EC50 [7]: > 300 µM (not active)
IC50 (Genome polyprotein): 64.9 µM (active)

CCC(=O)N1NC(=C2C(=O)N(C)C(=O)N(C)C2=O)CC1c1ccccc1 (stereo not given)
IC50 (Aminopeptidase N): 41.9 µM (active)
EC50 (Streptococcus): 8.9 µM (active)
EC50 [8]: 4.93 µM (active)

Cc1ccc(-c2nsc3c(N4CCC(C(N)=O)CC4)ncnc23)cc1
IC50 [3]: > 80 µM (inactive)
